From ChEMBL document CHEMBL4706763, “Targeting IRAK1 for Degradation with PROTACs” (ACS Med Chem Lett, 2021)

Each compound was assayed against T1, von Hippel-Lindau disease tumor suppressor/Interleukin-1 receptor-associated kinase 1 (Homo sapiens, UniProt P51617+P40337) (assay: Protac activity at VHL/IRAK1 in HEK293T cells assessed as induction of IRAK1 degradation measured after 24 hrs by Western blot analysis).
Format: cell-based
Target sequence in this assay (P51617 whole entry): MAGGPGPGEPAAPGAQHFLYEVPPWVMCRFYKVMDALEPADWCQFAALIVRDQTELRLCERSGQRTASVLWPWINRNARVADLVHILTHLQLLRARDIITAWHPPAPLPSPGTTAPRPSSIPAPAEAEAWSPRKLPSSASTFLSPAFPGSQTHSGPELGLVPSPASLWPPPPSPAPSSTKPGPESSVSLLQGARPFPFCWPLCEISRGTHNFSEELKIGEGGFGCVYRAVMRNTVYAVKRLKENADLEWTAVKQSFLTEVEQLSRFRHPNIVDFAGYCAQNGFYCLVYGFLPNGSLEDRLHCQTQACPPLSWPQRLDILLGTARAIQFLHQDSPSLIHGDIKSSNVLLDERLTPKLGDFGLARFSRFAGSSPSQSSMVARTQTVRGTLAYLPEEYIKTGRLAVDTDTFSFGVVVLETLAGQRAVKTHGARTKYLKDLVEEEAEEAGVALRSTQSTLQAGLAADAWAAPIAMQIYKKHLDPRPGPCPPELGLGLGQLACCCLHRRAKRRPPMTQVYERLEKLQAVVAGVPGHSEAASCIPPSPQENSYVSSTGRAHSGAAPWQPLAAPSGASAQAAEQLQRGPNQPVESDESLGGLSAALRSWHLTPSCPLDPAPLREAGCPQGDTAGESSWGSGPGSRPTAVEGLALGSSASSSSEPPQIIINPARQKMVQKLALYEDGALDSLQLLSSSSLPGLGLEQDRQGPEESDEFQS
Target sequence in this assay (P40337 whole entry): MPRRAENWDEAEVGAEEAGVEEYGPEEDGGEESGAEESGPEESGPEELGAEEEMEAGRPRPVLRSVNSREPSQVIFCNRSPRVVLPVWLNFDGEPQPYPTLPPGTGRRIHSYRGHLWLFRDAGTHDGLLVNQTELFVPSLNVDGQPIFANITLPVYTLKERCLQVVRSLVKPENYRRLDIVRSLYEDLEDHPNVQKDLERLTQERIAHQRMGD
Work on COc1cc(N2CC[C@@H](OCC(=O)N[C@H](C(=O)N3C[C@H](O)C[C@H]3C(=O)N[C@@H](C)c3ccc(-c4scnc4C)cc3)C(C)(C)C)[C@H](C)C2)ccc1NC(=O)c1cccc(-c2ccn[nH]2)n1 yielded a DC50 of 21 nM. With COc1cc(N2CCN(C(=O)OCC(=O)N[C@H](C(=O)N3C[C@H](O)C[C@H]3C(=O)NCc3ccc(-c4scnc4C)cc3)C(C)(C)C)CC2)ccc1NC(=O)c1cccc(-c2ccn[nH]2)n1 the DC50 was 16 nM. For COc1cc(N2CCN(C(=O)OCC(=O)N[C@H](C(=O)N3C[C@H](O)C[C@H]3C(=O)N[C@@H](C)c3ccc(-c4scnc4C)cc3)C(C)(C)C)CC2)ccc1NC(=O)c1cccc(-c2ccn[nH]2)n1, the DC50 was 9 nM. COc1cc(N2CCC(OCC(=O)N[C@H](C(=O)N3C[C@H](O)C[C@H]3C(=O)NCc3ccc(-c4scnc4C)cc3)C(C)(C)C)CC2)ccc1NC(=O)c1cccc(-c2ccn[nH]2)n1 was tested, and the DC50 was 16 nM. COc1cc(N2CCC(OCC(=O)N[C@H](C(=O)N3C[C@H](O)C[C@H]3C(=O)N[C@@H](C)c3ccc(-c4scnc4C)cc3)C(C)(C)C)CC2)ccc1NC(=O)c1cccc(-c2ccn[nH]2)n1 gave a DC50 of 3 nM. COc1cc(N2CCC(OCC(=O)N[C@H](C(=O)N3C[C@H](O)C[C@H]3C(=O)NCc3ccc(-c4scnc4C)cc3F)C(C)(C)C)CC2)ccc1NC(=O)c1cccc(-c2ccn[nH]2)n1 showed a DC50 of 13 nM. For COc1cc(N2CC[C@@H](OCC(=O)N[C@H](C(=O)N3C[C@H](O)C[C@H]3C(=O)N[C@@H](C)c3ccc(-c4scnc4C)cc3)C(C)(C)C)C[C@@H]2C)ccc1NC(=O)c1cccc(-c2ccn[nH]2)n1, the DC50 was 13 nM.

What follows are compounds tested against T1, von Hippel-Lindau disease tumor suppressor/Interleukin-1 receptor-associated kinase 1 (assay: Protac activity at VHL/IRAK1 in HEK293T cells assessed as induction of IRAK1 degradation at 10 uM measured after 24 hrs by Western blot analysis relative to control).
Format: cell-based
Target sequence in this assay (P40337 whole entry, looked up): as the sequence (P40337 whole entry) above
Target sequence in this assay (P51617 whole entry, looked up): as the sequence (P51617 whole entry) above
Compound COc1cc(N2CC[C@@H](OCC(=O)N[C@H](C(=O)N3C[C@H](O)C[C@H]3C(=O)N[C@@H](C)c3ccc(-c4scnc4C)cc3)C(C)(C)C)[C@H](C)C2)ccc1NC(=O)c1cccc(-c2ccn[nH]2)n1 has an Emax of 96%. With COc1cc(N2CCN(C(=O)OCC(=O)N[C@H](C(=O)N3C[C@H](O)C[C@H]3C(=O)NCc3ccc(-c4scnc4C)cc3)C(C)(C)C)CC2)ccc1NC(=O)c1cccc(-c2ccn[nH]2)n1 the Emax was 97%. Work on COc1cc(N2CCN(C(=O)OCC(=O)N[C@H](C(=O)N3C[C@H](O)C[C@H]3C(=O)N[C@@H](C)c3ccc(-c4scnc4C)cc3)C(C)(C)C)CC2)ccc1NC(=O)c1cccc(-c2ccn[nH]2)n1 yielded an Emax of 90%. In the case of COc1cc(N2CCC(OCC(=O)N[C@H](C(=O)N3C[C@H](O)C[C@H]3C(=O)NCc3ccc(-c4scnc4C)cc3)C(C)(C)C)CC2)ccc1NC(=O)c1cccc(-c2ccn[nH]2)n1, the Emax is reported as 95%. In the case of COc1cc(N2CCC(OCC(=O)N[C@H](C(=O)N3C[C@H](O)C[C@H]3C(=O)N[C@@H](C)c3ccc(-c4scnc4C)cc3)C(C)(C)C)CC2)ccc1NC(=O)c1cccc(-c2ccn[nH]2)n1, the Emax is reported as 96%. COc1cc(N2CC[C@H](OCC(=O)N[C@H](C(=O)N3C[C@H](O)C[C@H]3C(=O)N[C@@H](C)c3ccc(-c4scnc4C)cc3)C(C)(C)C)[C@@H](C)C2)ccc1NC(=O)c1cccc(-c2ccn[nH]2)n1 gave an Emax of 95%. In the case of COc1cc(N2CCC(OCC(=O)N[C@H](C(=O)N3C[C@H](O)C[C@H]3C(=O)NCc3ccc(-c4scnc4C)cc3F)C(C)(C)C)CC2)ccc1NC(=O)c1cccc(-c2ccn[nH]2)n1, the Emax is reported as 96%. For COc1cc(N2CC[C@@H](OCC(=O)N[C@H](C(=O)N3C[C@H](O)C[C@H]3C(=O)N[C@@H](C)c3ccc(-c4scnc4C)cc3)C(C)(C)C)C[C@@H]2C)ccc1NC(=O)c1cccc(-c2ccn[nH]2)n1, the Emax was 94%.
